Measurements as given in paper PMC11187126, “Structure and dynamics of the pyroglutamylated RF-amide peptide QRFP receptor GPR103” (Nature Communications, 2024).
Where two headings read alike, the source gives them in different places. No end group written: not given here.

Molecular target: T1, GPR103 C327^7.48A (Homo sapiens, UniProt Q96P65, C327A)
T1 construct: we used human full-length QRFPR-encoding plasmids; expressed in transfected cells; host or cells: HEK293 cells (HEK293A in the flow cytometry section), pCAGGS vector
T1 sequence (Q96P65 1-431 C327A): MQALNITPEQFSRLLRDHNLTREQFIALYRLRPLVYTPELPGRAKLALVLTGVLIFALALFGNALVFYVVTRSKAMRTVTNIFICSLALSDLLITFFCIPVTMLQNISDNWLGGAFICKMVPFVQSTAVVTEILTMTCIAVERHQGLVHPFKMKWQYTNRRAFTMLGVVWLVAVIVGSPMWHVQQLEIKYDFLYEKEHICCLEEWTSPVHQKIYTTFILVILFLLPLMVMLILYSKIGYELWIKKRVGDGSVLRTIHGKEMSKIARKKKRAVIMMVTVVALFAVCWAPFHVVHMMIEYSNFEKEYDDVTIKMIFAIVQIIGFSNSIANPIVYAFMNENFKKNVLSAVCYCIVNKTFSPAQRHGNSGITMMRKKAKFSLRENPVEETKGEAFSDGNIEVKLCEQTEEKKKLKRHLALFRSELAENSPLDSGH
Test: TGFα shedding assay; Exp. level WT (1:5)
Assay type: cell-based
Experimental: For the TGFα shedding assay and the flow cytometry analysis, we used human full-length QRFPR-encoding plasmids. Specifically, GPR103 was N-terminally modified with an HA signal sequence followed by a FLAG epitope and then a flexible linker ([…]; the FLAG epitope is underlined) and inserted into the pCAGGS vector. Plasmid encoding GPR103 mutants were generated using Quickchange Site-Directed Mutagensis kit (Agilent).
The TGFα shedding assay was performed as described previously with minor modifications. Plasmid transfection was performed in a 6-well plate with a mixture of 500 ng (per well in a 6-well plate) AP-TGFα-encoding plasmid and 200 ng GPR103-encoding plasmid. After 1-day culture, the transfected cells were harvested by trypsinization, pelleted by centrifugation at 190 × g for 5 min, and washed once with 5 mM HEPES (pH 7.4)-containing Hank’s Balanced Salt Solution (HBSS). After centrifugation, the cells were resuspended in 8 mL of the HEPES-containing HBSS. The cell suspension was seeded in a 96-well culture plate (cell plate) at a volume of 90 μL (per well hereafter) and incubated in a 37 °C incubator with 5% CO2 for 30 min. […] After spinning the cell plates at 190 × g for 2 min, 80 μL of conditioned media was transferred to an empty 96-well plate (conditioned media (CM) plate). Then, 80 μL of AP reaction solution (10 mM p-nitrophenylphosphate (p-NPP), 120 mM Tris-HCl (pH 9.5), 40 mM NaCl, and 10 mM MgCl2) was dispensed into the cell plates and the CM plates. Absorbance at 405 nm of the plates was measured using a microplate reader (SpectraMax 340 PC384, Molecular Devices) before and after 1-h incubation at room temperature. Ligand-induced AP-TGFα release was calculated by subtracting spontaneous AP-TGFα release signal from ligand-induced AP-TGFα release signal. The AP-TGFα release signals were fitted to a four-parameter sigmoidal concentration–response curve, using the Prism 10 software (GraphPad Prism). For each replicate experiment, the pEC50 parameter (negative logarithmic values of EC50 values) of the individual GPR103 mutants were normalized to that of the wild-type GPR103 performed in parallel, and resulting ∆pEC50 values were used to denote ligand response activity of the mutants. […]
Exp. le vel: WT (1:5 0)Exp. le vel: WT (1:5 0)Exp. le vel: WT (1:5 0)Exp. le vel: WT (1:2 0)Exp. le vel: WT (1:2 0)Exp. le vel: WT (1:1 0) […]
L1 4N - t e r mA F2 5N - t e r mA I 2 6N - t e r mA Y 2 9N - t e r mA C 9 82 .5 7A T10 22 .6 1A Exp . l eve l: WT (1 :5)Exp . l evel : >WT (1 :1)Exp. le vel: WT (1:2 0)Exp. le vel: WT (1:2 0)Exp. le vel: WT (1:5 0)Exp . l eve l: WT (1 :1) […]
Exp. le vel: WT (1:1 0)Exp. le vel: WT (1:2 0) C 1 1 83 .2 5AExp. le vel: WT (1:5 0)Exp. le vel: WT (1:5 0)Exp. le vel: WT (1:2 0)Exp . l eve l: WT (1 :5) […]
Exp. le vel: WT (1:5 0)Exp. le vel: WT (1:1 0)Exp. le vel: WT (1:5 0) E203ECL2AExp . l evel : >WT (1 :1)Exp. le vel: WT (1:5 0)Exp. le vel: WT (1:5 0) […]
Exp . l eve l: WT (1 :1) F28Exp. le vel: WT (1:5 0) C 2 8 56 .4 7AExp. le vel: WT (1:2 0) WExp. le vel: WT (1:2 0) F28Exp. le vel: WT (1:5 0)Exp . l evel : >WT (1 :1) […]
Exp. le vel: WT (1:5 0)Exp. le vel: WT (1:5 0) C 3 2 77 .4 8AExp . l eve l: WT (1 :5)Exp . l evel : >WT (1 :1)Exp . l evel : >WT (1 :1) […]
Suppl eme nt ary Figure 1 | Mutational analysis of GPR103. […]
mutants. Data are presented as mean values ± SEM, normally n=3-5; dots), each performed in triplicate. b-d Cell-surface expression (b) and QRFP26-in-duced activation of GPR103 (c, d) were analyzed by the flow cytometry and the TGFα shedding assay, respectively. From the concentration–response curves (a), Emax (c) and ΔpEC50 (d) values relative to the wild type were calculated. Colors in the mutant bars indicate an expression level matching to that of titrated wild type. Statistical analyses were performed using the ordinary one-way ANOVA followed by Dunnett tests with the expression-matched […]

Substance: TSGPLGNLAEELNGYSRKKGGFSFRF-NH2 [QRFP26]
- Emax (Exp. #1): 95.99 % WT
- Emax (Exp. #2): 96.35 % WT
- Emax (Exp. #3): 104.77 % WT
- Emax (mean, read-out: Emax): 99%
- EC50 (n = 3): 4.27 nM
- Emax (n = 3, read-out: Emax): 104 ± 2.3%
